# Experiments:
# [1] = target: T1, Replicase polyprotein 1ab (Severe acute respiratory syndrome coronavirus 2, UniProt P0DTD1); experiment: (§1) Inhibition of recombinant full length his tagged C-terminal SARS-CoV 2 main protease (M1 to Q307 residues) expressed in Escherichia coli BL21 (DE3) cells using LGSAVLQ-Rh110-dP as peptide substrate preincubated for 1 hr followed by substrate addition and measured after 24 hrs by fluorescence based analysis
# [2] = target: T1, Replicase polyprotein 1ab; experiment: Inhibition of recombinant full length SARS-CoV-2 main protease expressed in Escherichia coli preincubated for 10 mins followed by substrate addition and measured every 30 secs for 10 mins
# [3] = Cytotoxicity against human Calu-3 cells measured after 2 days by MTT assay; assay type: toxicity, cell-based; conditions: time 2 day
# SARS-CoV-2 [4] = experiment: Antiviral activity against SARS-CoV-2 (nCoV-2019BetaCoV/Wuhan/WIV04/2019) infected in african green monkey Vero E6 cells preincubated with compound for 1 hr followed by viral infection for 2 hrs and measured after 24 hrs post infection by real time PCR analysis; assay type: functional, organism-based; conditions: Severe acute respiratory syndrome coronavirus 2, nCoV-2019BetaCoV/Wuhan/WIV04/2019, Vero C1008
# [5] = Selectivity index, ratio of CC50 for human Calu-3 cells to EC50 for SARS CoV-2 (hCoV-19/Korea/KCDC06/2020) infected in human Calu-3 cells; assay type: toxicity, cell-based; conditions: read-out: Ratio CC50/EC50
# SARS-CoV-2 [6] = experiment: Antiviral activity against SARS CoV-2 (hCoV-19/Korea/KCDC06/2020) infected in human Calu-3 cells pre-infected with virus followed by compound addition and measured after 2 days post infection; assay type: functional, organism-based; conditions: Severe acute respiratory syndrome coronavirus 2, hCoV-19/Korea/KCDC06/2020, Calu-3, 48 h
# [7] = target: Replicase polyprotein 1ab (Severe acute respiratory syndrome coronavirus 2) (UniProt P0DTD1); experiment: as §1, with “peptide substrate at 10 uM preincubated for” for “peptide substrate preincubated for”, “based analysis relative to control” for “based analysis”; conditions: time 25.0 hrs
# SARS-CoV-2 [8] = experiment: microbe, parasite or virus in culture; conditions: Severe acute respiratory syndrome coronavirus 2, USA/NYU-VC-003/2020, A549-ACE2
Structure (SMILES),IC50 [1] [µM],other results
O=C(NCCCC1CCCCC1)n1cc(F)c(=O)[nH]c1=O,3.3,
O=C(NCCCNC(=O)n1cc(F)c(=O)[nH]c1=O)c1cc2ccccc2n1Cc1ccccc1,5.1,
CC(C)(C)CC(=O)N1CCC(CCCNC(=O)n2cc(F)c(=O)[nH]c2=O)CC1,1.7,IC50 [2]: 0.053 µM; CC50 at 48 h [3]: 99 µM; EC50 (SARS-CoV-2 [4]): 0.53 µM; selectivity ratio [5]: 8.3; EC50 (SARS-CoV-2 [6]): 12 µM
CC(C)Cn1c(C(=O)NCCCNC(=O)n2cc(F)c(=O)[nH]c2=O)cc2cc(F)ccc21,0.37,CC50 at 48 h [3]: 98 µM; selectivity ratio [5]: 3.3; EC50 (SARS-CoV-2 [6]): 29 µM
O=C(NCCC1CCCC1)n1cc(F)c(=O)[nH]c1=O,4.6,CC50 at 48 h [3]: > 100 µM; selectivity ratio [5]: > 2; EC50 (SARS-CoV-2 [6]): 49 µM
O=C(c1ccc2cc[nH]c2c1)N1CCC(CCCNC(=O)n2cc(F)c(=O)[nH]c2=O)CC1,3.1,
CC(C)Cn1c(C(=O)NCCCNC(=O)n2ccc(=O)[nH]c2=O)cc2cc(Cl)ccc21,1.6,CC50 at 48 h [3]: > 100 µM
O=C(NCCCCC1CCCCC1)n1cc(F)c(=O)[nH]c1=O,,inhibition [7]: 31%
O=C(Cc1ccccc1)N1CCC(CCCNC(=O)n2cc(F)c(=O)[nH]c2=O)CC1,3.9,
CC(C)Cn1c(C(=O)NCCCNC(=O)n2ccc(=O)[nH]c2=O)cc2cc(F)ccc21,0.57,CC50 at 48 h [3]: > 100 µM
CC(C)Cn1c(C(=O)NCCCNC(=O)n2cc(F)c(=O)[nH]c2=O)cc2cc(OC(F)(F)F)ccc21,2.5,
CCCCCCNC(=O)n1cc(CC)c(=O)[nH]c1=O,6.2,
O=C(NCCCNC(=O)n1cc(F)c(=O)[nH]c1=O)c1cc2ccccc2[nH]1,2.6,
Cc1ccc2c(c1)cc(C(=O)NCCCNC(=O)n1cc(F)c(=O)[nH]c1=O)n2CC(C)C,1.2,
O=C(NCCCC1CCNCC1)n1cc(F)c(=O)[nH]c1=O,,inhibition [7]: 19%
CCCCCCNC(=O)n1ccc(=O)[nH]c1=O,9.8,
COc1ccc2c(c1)cc(C(=O)NCCCNC(=O)n1cc(F)c(=O)[nH]c1=O)n2CC(C)C,1.4,
O=C(NCCCNC(=O)n1cc(F)c(=O)[nH]c1=O)c1ccc2cc[nH]c2c1,2.4,
CCCCCCNC(=O)n1cc(Cl)c(=O)[nH]c1=O,5.5,
Cn1c(C(=O)NCCCNC(=O)n2cc(F)c(=O)[nH]c2=O)cc2ccccc21,1.5,

Structure (SMILES),IC50 [1] [µM],other results
CC(C)(C)OC(=O)N1CCC(CCCNC(=O)n2cc(F)c(=O)[nH]c2=O)CC1,3.4,
CCn1c(C(=O)NCCCNC(=O)n2cc(F)c(=O)[nH]c2=O)cc2ccccc21,1.9,
CC(C)C[C@H](CNC(=O)c1cc2ccccc2[nH]1)CNC(=O)n1cc(F)c(=O)[nH]c1=O,4.4,
Cc1cn(C(=O)NCCCNC(=O)c2cc3cc(Cl)ccc3n2CC(C)C)c(=O)[nH]c1=O,1.3,CC50 at 48 h [3]: > 100 µM
CCC(CC)COC(=O)[C@H](C)N[P@](=O)(OC[C@H]1O[C@@](C#N)(c2ccc3c(N)ncnn23)[C@H](O)[C@@H]1O)Oc1ccccc1,,CC50 at 48 h [3]: > 100 µM; selectivity ratio [5]: > 172; EC50 (SARS-CoV-2 [6]): 0.58 µM
CC(C)Cn1c(C(=O)NCCCNC(=O)n2cc(F)c(=O)[nH]c2=O)cc2ccccc21,0.97,
Cn1ccc2ccc(C(=O)NCCCNC(=O)n3cc(F)c(=O)[nH]c3=O)cc21,3.8,
Cc1cn(C(=O)NCCCNC(=O)c2cc3cc(F)ccc3n2CC(C)C)c(=O)[nH]c1=O,0.7,CC50 at 48 h [3]: > 100 µM
O=C(NCCCc1ccccc1)n1cc(F)c(=O)[nH]c1=O,,inhibition [7]: 27%
O=C(NCCCCc1ccccc1)n1cc(F)c(=O)[nH]c1=O,3.9,
CCCCCCNC(=O)n1cc(Br)c(=O)[nH]c1=O,7.4,
O=C(NCCCCCCc1ccccc1)n1cc(F)c(=O)[nH]c1=O,3.8,
CC(C)Cn1c(C(=O)NCCCNC(=O)n2cc(F)c(=O)[nH]c2=O)cc2cc(C(F)(F)F)ccc21,0.79,
CCCCCCNC(=O)n1cc(C)c(=O)[nH]c1=O,7.6,
CCCCCCNC(=O)n1cc(C(F)(F)F)c(=O)[nH]c1=O,7.4,
CC(C)Cn1c(C(=O)NCCCNC(=O)n2cc(F)c(=O)[nH]c2=O)cc2cc(Cl)ccc21,0.35,CC50 at 48 h [3]: > 100 µM; selectivity ratio [5]: > 5.5; EC50 (SARS-CoV-2 [6]): 18 µM
O=C(CC1CCCCC1)N1CCC(CCCNC(=O)n2cc(F)c(=O)[nH]c2=O)CC1,4.5,IC50 [2]: 0.04 µM; EC50 (SARS-CoV-2 [4]): 0.72 µM
COc1cccc2[nH]c(C(=O)N[C@@H](CC(C)C)C(=O)N[C@@H](C[C@@H]3CCNC3=O)C(=O)CO)cc12 [PF-00835231],,EC50 (SARS-CoV-2 [8]): 0.221 µM
O=C(NCCC1CCCCC1)n1cc(F)c(=O)[nH]c1=O,4.9,
CCCCCCNC(=O)n1cc(F)c(=O)[nH]c1=O [CARMOFUR],,CC50 at 48 h [3]: > 100 µM; EC50 (SARS-CoV-2 [6]): > 100 µM
